Patent publication EP0884321A1, “Ascorbic acid 2-phosphate zinc salt and process for manufacturing the same” (priority 1997, dated 1998)
Counter-ions that a name gives are not always drawn. Like-named read-outs stand apart in the source and are kept apart here.

What was measured:
[1] = cited from earlier work
[2] = tested on: B. subtilis (168 strain); assay: Antimicrobial effect, turbidity in NUTRIENT BROTH; type: cell-based; settings: 0.1% salt, pH 6.8, about 10^7 cells/ml, 37°C for 24 hours
Description: (§1) To NUTRIENT BROTH (produced by DIFCO), 0.1% of an L-ascorbic acid 2-phosphate salt was added thereto, and the pH was adjusted to 6.8 using hydrochloric acid or sodium hydroxide. Using 5 ml of the medium thus prepared, test bacterium were inoculated in a concentration of about 10^7 cells/ml and incubated in a test tube at 37°C for 24 hours. […] As a control, the same test was performed using a medium not containing an L-ascorbic acid 2-phosphate salt.

[3] = tested on: E. coli (K-12 strain); assay: Antimicrobial effect, turbidity in NUTRIENT BROTH; type: cell-based; settings: 0.1% salt, pH 6.8, about 10^7 cells/ml, 37°C for 24 hours
Description: as §1

[4] = Stability in buffer solution on storage (HPLC); type: physicochemical; settings: about 0.1%, stored at 50°C for 476 hours; for Stability (100% = concentration before storage) pH: 8: 50 mM Tris-HCl; for Stability (100% = concentration before storage) pH: 5: 50 mM acetic acid-NaOH
Description: In the Examples and Test Examples, the analysis of an L-ascorbic acid 2-phosphate salt or an ion thereof was performed using an Ap-containing solution having a known concentration (prepared from L-ascorbic acid 2-phosphate magnesium salt) as a standard by an HPLC method using a Shodex IEC DEAE-825 resin (ammonium acetate 10 mM → 1M gradient, detected spectrophotometrically at 265 nm). The elemental analysis was performed by an ICP emission method, flame photometry and an ion chromatography method. Unless otherwise indicated, the reagents used herein were commercially available reagents.
The stability of L-ascorbic acid 2-phosphate zinc salt was compared to that of L-ascorbic acid 2-phosphate magnesium salt. Each salt was dissolved in a buffer solution (50 mM acetic acid-NaOH, pH: 5, or 50 mM Tris-HCl, pH: 8) to a concentration of about 0.1% and stored at 50°C for 476 hours. The concentrations of the L-ascorbic acid 2-phosphate before and after storage were analyzed by the HPLC method.

[5] = Solubility in water
[6] = background statement on known salts

SMILES	turbidity after incubation, B. subtilis (168 strain) [2]	turbidity after incubation, E. coli (K-12 strain) [3]	concentration of aqueous solution that can be formed (solubility in water) [1, 6]	other results
O=C1O[C@H]([C@@H](O)CO)C(O)=C1OP(=O)([O-])[O-].[Na+].[Na+]	+	+		concentration of aqueous solution that can be formed (solubility in water) [1]: about 30%
O=C1O[C@H]([C@@H](O)CO)C(O)=C1OP(=O)([O-])[O-].[Mg+2] [L-ascorbic acid 2-phosphate magnesium salt]	+	+	< 30%	Stability (100% = concentration before storage) pH: 8 ([4]; pH: 8): 95%; Stability (100% = concentration before storage) pH: 5 ([4]; pH: 5): 82%
O=C1O[C@H]([C@@H](O)CO)C(O)=C1OP(=O)([O-])[O-].[Zn+2] [L-ascorbic acid 2-phosphate zinc salt (Example 2)]				Stability (100% = concentration before storage) pH: 8 ([4]; pH: 8, 28560 min): 95%; Stability (100% = concentration before storage) pH: 5 ([4]; pH: 5, 28560 min): 92%
O=C1O[C@H]([C@@H](O)CO)C(O)=C1OP(=O)([O-])[O-].[Zn+2] [L-ascorbic acid 2-phosphate zinc salt]	-	-		remaining at 476 h ([4]; 50 mm acetic acid-naoh, pH 5, 50 mM acetic acid-NaOH, pH: 5, read-out: Stability (100% = concentration before storage) pH: 5): 91%; remaining at 476 h ([4]; 50 mm tris-hcl, pH 8, 50 mM Tris-HCl, pH: 8, read-out: Stability (100% = concentration before storage) pH: 8): 93%; solubility [5]: ≥ 500 mg/mL
O=C1O[C@H]([C@@H](O)CO)C(O)=C1OP(=O)(O)O [calcium salt]			scarcely dissolves in water	
